The text below walks through data of patent US20240166646A1, “1H-PYRROLO[2,3-B]PYRIDINE DERIVATIVES AS BCL-2 INHIBITORS FOR THE TREATMENT OF NEOPLASTIC AND AUTOIMMUNE DISEASES” (Newave Pharmaceutical Inc., priority 2020, published 2024).

Counter-ions that a name gives are not always drawn.

As a reminder, the IC50 is the concentration needed to halve the response being measured.

The target in this assay is Bcl-2 (Homo sapiens (Human), UniProt P10415). In words: Bcl-2 competition binding (fluorescence polarization) assay. The following applies: fluorescein labeled BH3 peptide 15 nM, Bcl-2 protein 30 nM, 3 hours of incubation at room temperature. As for the experimental part: Biological Example 1: Bcl-2 Competition Binding (Fluorescence Polarization) Assay
Sequence of Bcl-2 (P10415 whole entry): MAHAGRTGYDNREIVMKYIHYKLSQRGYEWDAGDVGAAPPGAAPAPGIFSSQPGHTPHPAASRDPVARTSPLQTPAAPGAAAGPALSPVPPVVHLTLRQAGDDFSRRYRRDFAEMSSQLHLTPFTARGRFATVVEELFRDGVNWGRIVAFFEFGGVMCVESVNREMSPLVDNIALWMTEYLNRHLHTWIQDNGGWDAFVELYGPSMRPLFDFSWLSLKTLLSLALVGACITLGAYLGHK
The fluorescence-labeled 23 amino acid peptide BH3 was purchased from CalBiochem ([…]). […] This binding assay was performed in 96-well plate and with each assay contained 15 and 30 nM of labeled peptide and purified Bcl-2 protein (purchased from R&D Systems, Inc). The assay buffer contained 20 mM Hepes (pH 7.0), 50 mM KCl, 5 mM MgCl2, 20 mM Na2MoO4, 0.1 mg/mi Bovine Gamma Globulin and 0.01% NP40. Compounds were diluted in DMS0 and added to the final assay with concentration range from 20 μM to 2 nM. The polarization degree (mP) value was determined by BioTek Synergy II with background subtraction after 3 hours of incubation at room temperature. IC50 was calculated using Prism software with sigmoidal dose-response curve fitting. ABT-737 was used as reference compound. Such assays, carried out with a range of doses of test compounds, allowed the determination of an approximate IC50 value.
A general note: Polarisation of emitted light reports the rotation of a fluorescent probe.
As to `O=C(NS(=O)(=O)c1ccc(NCC2CCOCC2)c([N+](=O)[O-])c1)c1ccc(N2CCC3(CC2)CC(N2CCC[C@H]2c2ccccc2)C3)cc1N1c2cc3cc[nH]c3nc2O[C@@H]2COC[C@H]21` [Example 12, 2-[(11R,15S)-13,16-dioxa-2,4,10-triazatetracyclo[7.7.0.0^{3,7}.0^{11,15}]hexadeca-1(9),2,5,7-tetraen-10-yl]-N-{3-nitro-4-[(oxan-4-ylmethyl)amino]benzenesulfonyl}-4-{2-[(2S)-2-phenylpyrrolidin-1-yl]-7-azaspiro[3.5]nonan-7-yl}benzamide hydrochloride], the IC50 is 0.161 nM.

For `O=C(NS(=O)(=O)c1ccc(NCC2CCOCC2)c([N+](=O)[O-])c1)c1ccc(N2CCC3(CC2)CC(N2CCC[C@H]2c2ccccc2-c2cccnc2)C3)cc1N1c2cc3cc[nH]c3nc2O[C@@H]2COC[C@H]21` [Example 13, 2-[(11R,15S)-13,16-dioxa-2,4,10-triazatetracyclo[7.7.0.0^{3,7}.0^{11,15}]hexadeca-1(9),2,5,7-tetraen-10-yl]-N-{3-nitro-4-[(oxan-4-ylmethyl)amino]benzenesulfonyl}-4-{2-[(2S)-2-[2-(pyridin-3-yl)phenyl]pyrrolidin-1-yl]-7-azaspiro[3.5]nonan-7-yl}benzamide hydrochloride], the IC50 amounted to 2.42 nM.

`O=C(NS(=O)(=O)c1ccc(NCC2CCOCC2)c([N+](=O)[O-])c1)c1ccc(N2CCC3(CC2)CC(N2CCC[C@H]2c2ccccc2-c2ccncc2)C3)cc1N1c2cc3cc[nH]c3nc2O[C@@H]2COC[C@H]21` [Example 14, 2-[(11R,15S)-13,16-dioxa-2,4,10-triazatetracyclo[7.7.0.0^{3,7}.0^{11,15}]hexadeca-1(9),2,5,7-tetraen-10-yl]-N-{3-nitro-4-[(oxan-4-ylmethyl)amino]benzenesulfonyl}-4-{2-[(2S)-2-[2-(pyridin-4-yl)phenyl]pyrrolidin-1-yl]-7-azaspiro[3.5]nonan-7-yl}benzamide hydrochloride]: the IC50 turned out to be 0.74 nM.

`O=C(NS(=O)(=O)c1ccc(NCC2CCOCC2)c([N+](=O)[O-])c1)c1ccc(N2CCC3(CC2)CC(N2CCC[C@H]2c2ccccc2C(F)(F)F)C3)cc1N1c2cc3cc[nH]c3nc2O[C@@H]2COC[C@H]21` [Example 15, 2-[(11R,15S)-13,16-dioxa-2,4,10-triazatetracyclo[7.7.0.0^{3,7}.0^{11,15}]hexadeca-1(9),2,5,7-tetraen-10-yl]-N-{3-nitro-4-[(oxan-4-ylmethyl)amino]benzenesulfonyl}-4-{2-[(2S)-2-[2-(trifluoromethyl)phenyl]pyrrolidin-1-yl]-7-azaspiro[3.5]nonan-7-yl}benzamide hydrochloride]: the IC50 came out at 0.2 nM.

Take `COc1ccccc1[C@@H]1CCCN1C1CC2(CCN(c3ccc(C(=O)NS(=O)(=O)c4ccc(NCC5CCOCC5)c([N+](=O)[O-])c4)c(N4c5cc6cc[nH]c6nc5O[C@@H]5COC[C@H]54)c3)CC2)C1` [Example 16, 2-[(11R,15S)-13,16-dioxa-2,4,10-triazatetracyclo[7.7.0.0^{3,7}.0^{11,15}]hexadeca-1(9),2,5,7-tetraen-10-yl]-4-{2-[(2S)-2-(2-methoxyphenyl)pyrrolidin-1-yl]-7-azaspiro[3.5]nonan-7-yl}-N-{3-nitro-4-[(oxan-4-ylmethyl)amino]benzenesulfonyl}benzamide]: the IC50 amounted to 0.09 nM.

For `O=C(NS(=O)(=O)c1ccc(NCC2CCOCC2)c([N+](=O)[O-])c1)c1ccc(N2CCC3(CC2)CC(N2CCC[C@H]2c2ccccc2-c2ccccn2)C3)cc1N1c2cc3cc[nH]c3nc2O[C@@H]2COC[C@H]21` [Example 18, 2-[(11R,15S)-13,16-dioxa-2,4,10-triazatetracyclo[7.7.0.0^{3,7}.0^{11,15}]hexadeca-1(9),2,5,7-tetraen-10-yl]-N-{3-nitro-4-[(oxan-4-ylmethyl)amino]benzenesulfonyl}-4-{2-[(2S)-2-[2-(pyridin-2-yl)phenyl]pyrrolidin-1-yl]-7-azaspiro[3.5]nonan-7-yl}benzamide], the IC50 is 0.42 nM.
